Entries after “also recorded” stand apart in the source; their conditions may differ. Values belong to the compound of their own block, whether it stands above or below them.
Columns and labels:
BON cells = experiment: Cell viability (MTS) assay, BON; format: cell-based; conditions: 72 hour drug incubation (FIG. 1C)
[1] = test system: TS protein expression in PANC-1 cells; experiment: Immunoblot analysis of TS expression in PANC-1 cells; format: cell-based; conditions: PANC-1 cells treated 72 hours (FIG. 1D)
Protocol: To prepare lysates, 0.5×10^6 PA NC-1 cells were seeded in 100 mm dishes in 10 ml DMEM High glucose and 24 hours later, 5-FU (Sigma) or 19-S were added at the specified concentrations. Cells were harvested after 72 hours and cell pellets were stored at −80° C. For GI50 determination, 3000 MIA PaCa-2 cells. […] After 72 hours, cell viability was assessed by reduction of MTS ((3-4,5-dimethylthiazol-2-yl)-5-(3-carboxymethoxyphenol)-2-(4-sulfophenyl)-2H-tetrazolium) using Cell Titer 96 R Aqueous One Solution Cell Proliferation Assay Kit (Promega), following manufacturer's recommendations. Chemiluminescent output (integration time 1000 ms) was measured on a SpectraMax M3® (Molecular devices). […]
Protein lysates were generated using RIPA buffer (Santa Cruz) for 20 minutes on ice, followed by 15 minutes centrifugation at 13,000 rpm, at 4° C. […] Protein was quantified using Bradford Assay (BioRad) following manufacturer's recommendations, standard curves were generated with bovine serum albumin (Fisher).
20 μg of total protein lysate was loaded per lane of 10% Tris Glycine Gel (Invitrogen). […] Signal was detected using West Pico Plus chemiluminescent substrate (Thermo Scientific) following manufacturer's recommendations. […] For protein level quantification relative to loading control, densitometric analysis was performed by ImageJ software.

CM cells = experiment: Cell viability (MTS) assay, CM; format: cell-based; conditions: 72 hour drug incubation (FIG. 1C)
MIA PaCa-2 cells = experiment: Cell viability (MTS) assay, MIA PaCa-2; format: cell-based; conditions: Homo sapiens; MIA PaCa-2, 72-hour treatment, highest concentration 350 μM (FIG. 4E)
Protocol: To prepare lysates, 0.5×10^6 PA NC-1 cells were seeded in 100 mm dishes in 10 ml DMEM High glucose and 24 hours later, 5-FU (Sigma) or 19-S were added at the specified concentrations. Cells were harvested after 72 hours and cell pellets were stored at −80° C. For GI50 determination, 3000 MIA PaCa-2 cells. […] After 72 hours, cell viability was assessed by reduction of MTS ((3-4,5-dimethylthiazol-2-yl)-5-(3-carboxymethoxyphenol)-2-(4-sulfophenyl)-2H-tetrazolium) using Cell Titer 96 R Aqueous One Solution Cell Proliferation Assay Kit (Promega), following manufacturer's recommendations. Chemiluminescent output (integration time 1000 ms) was measured on a SpectraMax M3® (Molecular devices). Data were normalized to max/minutes and plotted in GraphPad Prism for GI50 determination. Chemical synthesis details, including characterization of each compound, can be found in the supporting information document associated with this publication.

human TS = target: T1, human TS (Homo sapiens, UniProt P04818); experiment: Competitive drug displacement assay (tritium TS assay); format: biochemical; conditions: TS pre-incubated with drug; for dUMP conversion with increasing 5,10-mTHF concentration (drug displacement): 5,10-mTHF up to 5×; for dUMP conversion with increasing dUMP concentration (drug displacement): dUMP up to 5×
T1 construct: 6xHis (N); made in house; host or cells: E. coli BL21 (DE3)
T1 sequence (P04818 whole entry): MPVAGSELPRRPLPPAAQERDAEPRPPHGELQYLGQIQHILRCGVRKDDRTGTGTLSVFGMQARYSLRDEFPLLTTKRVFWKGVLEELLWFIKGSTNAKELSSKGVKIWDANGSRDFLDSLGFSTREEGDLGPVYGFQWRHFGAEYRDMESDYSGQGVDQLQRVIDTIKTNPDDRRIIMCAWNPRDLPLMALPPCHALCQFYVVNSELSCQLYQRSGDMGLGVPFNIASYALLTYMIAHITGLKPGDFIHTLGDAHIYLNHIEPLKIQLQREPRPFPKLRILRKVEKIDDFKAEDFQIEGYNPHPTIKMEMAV
Protocol: For these experiments the TS protein was first incubated with each drug, the reaction was then initiated by addition of 5,10-mTHF and dUMP using different concentrations of either 5,10-mTHF or dUMP to change the substrate:drug ratio. If there was competition between one of the substrates and the drug for the same binding site, increasing the substrate concentration will displace more of the pre-bound drug and shift the equilibrium towards the enzyme: substrate complex, thus allowing the conversion of dUMP to proceed (FIG. 5A).
The competitive drug displacement assay utilized the standard reaction conditions for the tritium based TS catalytic activity assay including 40 μM dUMP (Sigma Aldrich, D3876) with the [5-3H]dUMP tracer (ViTrax, VT122) accounting for 0.06% of the final dUMP concentration and 100 μM 5,10-methylene tetrahydrofolate (defined as 1× dUMP and 1×5,10-mTHF). Concentrations of total dUMP and 5,10-mTHF were then changed relative to these 1× concentrations to concisely indicate the changes in either the substrate or cofactor concentration. […] The remaining components in each 200 μL reaction were consistent in all reactions and included 2 μg of purified human TS in 50 mM KH2PO4 (Sigma Aldrich, P0662) and 100 mM β-mercaptoethanol (Sigma Aldrich, M7522).

[2] = target: T2, human thymidylate synthase (hTS) (Homo sapiens, UniProt P04818); experiment: Tritium based TS catalytic activity assay; format: biochemical; conditions: for inhibition of TS catalytic activity, 19-S series library screen: 250 uM (FIG. 4A); for TS inhibition at decreasing drug concentrations: compared with Pem and MTX controls (FIG. 4C); for TS activity (conversion of dUMP): drug 250 μM, 10 μg/mL bacterially expressed TS protein (FIG. 1B)
T2 construct: 6xHis (N); made in house; host or cells: E. coli BL21 (DE3)
T2 sequence (P04818 whole entry): as above
Protocol: The catalytic activity of TS was determined by measuring the release of [31] from [5-3H]dUMP (ViTrax, VT122) resulting from the conversion of dUMP to dTMP as previously described12,33. […] Reactions were performed in 50 mM KH2PO4 (Sigma Aldrich, P0662) at pH 7.2 using 2 μg of purified human TS. Reactions were performed in a final volume of 200 μL with 100 mM β-mercaptoethanol (Sigma Aldrich, M7522), 40 μM dUMP (Sigma Aldrich, D3876), 100 μM 5,10-mTHF, and the [5-3H]dUMP tracer (ViTrax, VT122) accounting for 0.06% of the final dUMP concentration in the reaction. […] Reactions were initiated by the addition of the dUMP substrate and 5,10-mTHF cofactor, then incubated at 37° C. for 30 minutes. […] Reactions were terminated by the addition of 100 μL of ice-cold 20% trichloroacetic acid (Sigma Aldrich, T6399), then excess [5-31-]dUMP was removed by the addition of 200 μL of an albumin-coated activated charcoal solution. The albumin-coated activated charcoal solution was prepared by mixing 10 g of acid-washed activated dextran coated charcoal (Sigma Aldrich, C6241) with 2.5 g of bovine albumin (Sigma Aldrich, A1933) in 100 mL of H2O. The suspension was incubated at room temperature for 30 minutes and then centrifuged for 30 minutes at 10,000×g. […] For all experiments, positive control reactions were performed with no drug representing 100% TS activity, and negative control reactions were performed with no TS enzyme or no 5,10-mTHF substrate representing 0% TS activity. All assays were performed in biological duplicate and technical duplicate. Results were analyzed using GraphPad Prism 8.

DHFR = target: T3, DHFR (Homo sapiens, UniProt P00374); experiment: Absorbance-based DHFR activity assay; format: biochemical; conditions: for DHFR inhibition at reduced inhibitor concentrations: compared with Pem and MTX controls (FIG. 4D)
T3 construct: purchased Sigma D6566
T3 sequence (P00374 1-187): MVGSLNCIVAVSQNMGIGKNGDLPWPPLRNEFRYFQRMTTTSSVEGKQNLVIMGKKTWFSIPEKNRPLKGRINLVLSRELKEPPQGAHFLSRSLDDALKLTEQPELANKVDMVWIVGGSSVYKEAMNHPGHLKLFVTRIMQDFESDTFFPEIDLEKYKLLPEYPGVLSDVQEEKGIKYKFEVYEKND
Protocol: 6 μL NADPH solution and 5 μL of dihydrofolic acid (DHFR substrate) (Sigma, D7006).

[3] = test system: Luc-PANC-1 xenograft tumors; experiment: Luc-PANC-1 subcutaneous xenograft tumor model; format: in vivo, NSG mice; conditions: 25 mg/kg oral gavage
Protocol: Luc-PANC-1 (5×106) and Luc-CM (0.5×106) cells were resuspended in 200 ul of PBS and injected subcutaneously (SQ) or intraperitonially (IP) to 6-8-week-old NSG mice respectively. Tumor bearing mice were imaged using Xenogen IVIS® Lumina Bioluminescence Imaging System (Perkin Elmer) every week after cell injection. At 4 weeks, animals were randomized based on slope of luciferase signal and treatment was initiated. […] For all animals body weight was recorded weekly and Luc-PANC-1 tumor volume was measured weekly with a caliper. For scheduled sacrifice experiments, animals were euthanized after 4 weeks of treatment. […] Harvested tumors were excised and weighted, and fixed in alcoholic formalin (67.5% Ethanol, 10% Formaldehyde 37%, 22.5% water) for pathology analysis. Tumor volume was calculated as [volume=0.52 (length×width2)].
From this stock, the exact volume needed for daily in vivo delivery was then formulated into 95% corn oil (Mazola) at 2 different concentrations: 1.25 mg/mi (formulation 1) and 3.125 mg/ml (formulation 2). To determine the volume of solution administered to the mice, 200 μl (maximum volume to be delivered in mice via IP or oral gavage) was divided by 25 g of mouse body weight. Therefore, 8 μl of formulation 1 or 2 multiplied by the weight of the mice were used to reach a dose of 10 or 25 mg/kg of body weight, respectively.
Prior to bioluminescence imaging the region where tumors were located was shaved. Mice were then anesthetized with 2.5% isoflurane in 02 then administered the D-luciferin substrate (150 mg/kg in PBS) by IP injection. Following the injection of the D-luciferin substrate mice were imaged using the Xenogen IVIS® Lumina Bioluminescence Imaging System (Perkin Elmer). The peak of luciferase photon flux was recorded 6 minutes after injection of the D-luciferin substrate. The total photon flux was analyzed and restricted to tumor ROI (region of interest) using Living Image v2.60.1 software (Imaging Systems).

[4] = Maximum tolerated dose (MTD) study; format: in vivo
Text: After 3 treatment cycles, animals rested (no treatment) for one more week before euthanasia. Body weight and physical status of all mice were closely monitored. Tissues were collected and fixed in alcoholic formalin to test for toxicity.

SMILES: O=c1[nH]cc(F)c(=O)[nH]1 [Compound 5-FU, 5-fluorouracil, reference compound]
IC50 (BON cells): 7.1 µM
TS protein expression (steady-state TS levels) [1]: induced TS expression
GI50 (CM cells): 14.8 µM

SMILES: CCc1nc(N)nc(N)c1-c1ccc(N(C)Cc2ccc(OC)cc2)c([N+](=O)[O-])c1 [Compound 19-S5]
GI50 (MIA PaCa-2 cells): 0.2 to 0.84 µM
dUMP conversion with increasing 5,10-mTHF concentration (drug displacement) (human TS): increased the amount of dUMP conversion
dUMP conversion with increasing dUMP concentration (drug displacement) (human TS): the amount of dUMP conversion did not increase
inhibition of TS catalytic activity, 19-S series library screen [2]: inhibited TS activity
TS inhibition at decreasing drug concentrations ([2]; listed as 19-55): greater TS inhibition than both MTX and Pen
TS inhibition at decreasing drug concentrations ([2]; listed as 19-85): both strong TS and DHFR inhibition
DHFR inhibition at reduced inhibitor concentrations (DHFR): both strong TS and DHFR inhibition

SMILES: CCc1nc(N)nc(N)c1-c1ccc(N(C)Cc2ccc3c(c2)OCO3)c([N+](=O)[O-])c1 [Compound 19-S7]
GI50 (MIA PaCa-2 cells): 0.2 to 0.84 µM
dUMP conversion with increasing 5,10-mTHF concentration (drug displacement) (human TS): increased the amount of dUMP conversion
dUMP conversion with increasing dUMP concentration (drug displacement) (human TS): the amount of dUMP conversion did not increase
adverse effects / body weight ([3]; 4 cycles): did not show adverse effects or declines in body weight
tumor progression (photon flux, tumor volume, excised tumor mass) ([3]; 4 cycles (FIGS. 7A-7H)): inhibited tumor progression
mortality ([4]; 50 mg/kg PO, n=3 (FIG. 16B)): found dead after 12th (n=1) and 15th (n=2) dose
MTD ([4]; PO, NSG mice (FIGS. 16A-16B)): 25 mg/kg
inhibition of TS catalytic activity, 19-S series library screen [2]: inhibited TS activity
TS inhibition at decreasing drug concentrations [2]: greater TS inhibition than both MTX and Pen; also recorded: both strong TS and DHFR inhibition
DHFR inhibition at reduced inhibitor concentrations (DHFR): both strong TS and DHFR inhibition

SMILES: O=c1[nH]c(=O)n([C@@H]2O[C@H](CO)[C@@H](O)[C@H]2O)cc1F [FUrd, 5-fluorouridine, reference compound]
TS activity (conversion of dUMP) [2]: inactive

Further lines, with some results ahead:

inhibition of DHFR activity, 19-S series library screen (DHFR; 1 μM (FIG. 4B)): exception
SMILES: CCc1nc(N)nc(N)c1-c1ccc(NCCOCCOCCN)c([N+](=O)[O-])c1 [Compound 19-S10]

dUMP conversion with increasing dUMP concentration (drug displacement) (human TS): did not show drug displacement
TS activity (conversion of dUMP) [2]: reduced conversion of dUMP
SMILES: O=c1[nH]c(=O)n([C@H]2C[C@H](O)[C@@H](CO)O2)cc1F [FdUrd, 5-fluoro-2′-deoxyuridine, reference compound]

GI50 (MIA PaCa-2 cells): > 350 µM
SMILES: CN(Cc1cnc2nc(N)nc(N)c2n1)c1ccc(C(=O)N[C@@H](CCC(=O)O)C(=O)O)cc1 [MTX, methotrexate, reference compound]

GI50 (MIA PaCa-2 cells): > 350 µM
dUMP conversion with increasing 5,10-mTHF concentration (drug displacement) (human TS): increased the dUMP conversion
dUMP conversion with increasing dUMP concentration (drug displacement) (human TS): did not increase dUMP conversion
DHFR inhibition at reduced inhibitor concentrations (DHFR): less effective against DHFR
SMILES: Nc1nc2[nH]cc(CCc3ccc(C(=O)N[C@@H](CCC(=O)O)C(=O)O)cc3)c2c(=O)[nH]1 [Pem, pemetrexed, reference compound]
TS inhibition at decreasing drug concentrations [2]: greater TS inhibition than the MTX antifolate

Reference: patent US20260258000A1, “THYMIDYLATE SYNTHASE INHIBITORS AND USES THEREOF” (University of Florida Research Foundation, Incorporated, priority 2021, published 2026)
